{
  "source": "patent US10227369B2",
  "about": "“Short-chain fatty acid hexosamine analogs and their use in tissue engineering applications” (THE JOHNS HOPKINS UNIVERSITY, priority 2013, dated 2019)",
  "assay_type_in_all_cases": "cell-based, bovine",
  "key": {"[1]": {"tested_on": "unstimulated chondrocytes", "test": "Unstimulated (no IL-1β) chondrocytes in 3D PEGDA hydrogels: real-time PCR gene expression", "settings": "21 days", "method": "(§1) Cell Isolation and Culturing. Bovine chondrocytes were isolated from 4- to 8-week-old calves (Research 87, Inc., Boylston, Mass.), as previously described. Briefly, cartilage was dissected from the femoral patellar groove and condyles and minced into approximately 1 mm^2 pieces. Cells were isolated from the tissue by digesting overnight at 37° C. with 2 mg/ml type II collagenase (Worthington Biochemical Corp., Lakewood, N.J.), 5% fetal bovine serum (FBS), 100 U/ml penicillin and 100 μg/ml streptomycin on an orbital shaker. The cell suspension was passed through a 70 μm cell strainer, followed by centrifugation. Cells were washed 3 times using sterile phosphate buffered saline (PBS). Chondrocyte medium was composed of high glucose Dulbecco's Modified Eagle's Medium (DMEM) supplemented with 10 mM HEPES, 0.4 mM L-proline, 50 μg/ml ascorbic acid, 10% (v/v) fetal bovine serum (FBS; Hyclone Laboratories, Inc., Logan, Utah), 0.1 mM non-essential amino acids, 100 U/ml penicillin and 100 μg/ml streptomycin.\n(§2) Photoencapsulation in Poly(Ethylene Glycol)-Diacrylate (PEGDA) Hydrogels and Construct Culturing. For all 3D culture experiments, cells were photoencapsulated in PEGDA hydrogels, as previously described. Briefly, 100 mg PEGDA (3.4 kDa, SunBio, Anyang City, South Korea) was dissolved in 1 ml sterile PBS. A photoinitiator solution of Irgacure® 2959 (CIBA Specialty Chemicals) was prepared by dissolving 100 mg of Irgacure® 2959 in 1 ml 70% ethanol. Five microliters of the Irgacure® 2959 solution was added to 1 ml of PEGDA solution. Cells were suspended in the hydrogel precursor solution at a density of 20 million cells/ml and polymerized in sterile molds. A high cell density was chosen as it has been shown. Based on our previous studies a high cell density was chosen to best to support a cell phenotype and differentiation and cell phenotype. Polymerization was carried out using UV light (365 nm, 3.2 mW/cm^2) exposure for 5 minutes.\n(§3) RNA Isolation and Real-Time PCR. Total RNA was extracted using TRIzol® reagent (Life Technologies, Grand Island, N.Y.) following the manufacturer's protocol. cDNA was synthesized using Superscript® II reverse transcriptase (Life Technologies, Grand Island, N.Y.) following the manufacturer's protocol. Real-time PCR was carried out using a StepOnePlus™ Real-Time PCR System (Life Technologies, Grand Island, N.Y.). mRNA amounts for bovine primers were calculated using the ΔΔCt method. Relative mRNA quantities for goat primers were calculated using the Pfaffl method."}, "[2]": {"tested_on": "IL-1β-stimulated chondrocytes", "test": "IL-1β-stimulated chondrocytes in 3D PEGDA hydrogels: biochemical analysis (DNA, sGAG, collagen), histology, immunohistochemistry", "settings": "10 ng/ml IL-1β", "method": "as §1, §2\n(§4) For chondrocyte experiments, the cell-laden hydrogels were cultured in chondrocyte medium supplemented with 10 ng/ml IL-1β for 3 days. Following the initial 3 days, constructs were cultured with medium containing specific concentrations of hexosamine analog with 10 ng/ml IL-1β for an additional 21 days. The medium was changed 3 times per week.\n(§5) Biochemical Analysis. The constructs (n=3 for chondrocyte experiments and n=4 for chondrogenic experiments) were lyophilized for 48 hours and the dry weights measured. Constructs were then homogenized in 125 μg/ml papainase (Worthington Biochemical Corp., Lakewood, N.J.) and digested for 16 hours at 60° C. Quantification of DNA content was carried out using a Hoescht Dye 33342 DNA assay. Calf thymus DNA was used to generate standard curves. Quantification of sulfated glycosaminoglycans (sGAG), a molecule found in cartilage ECM, was carried out using a 1,9-dimethylmethylene blue (DMMB) dye assay; chondroitin sulfate was used to generate standard curves. Quantification of collagen was carried out via measuring hydroxyproline content after hydrolyzing in 6 N HCl overnight at 120° C. The reaction of hydroxyproline with chloramine-T and p-dimethylaminobenzaldehyde was performed as a measure of total collagen content; hydroxyproline was used to generate standard curves.\nHistology and Immunohistochemistry. Constructs were fixed in 10% formalin or 4% paraformaldehyde followed by dehydration in increasing concentrations of ethanol, embedded in paraffin and sliced into 5 μm sections. After paraffin removal and subsequent rehydration, sections were stained for proteoglycans using Safranin-O and fast green or prepared for immunohistochemistry. For immunohistochemical staining of type II collagen, endogenous peroxidase was quenched using 3% (v/v) hydrogen peroxide in methanol. Sections were then incubated at 37° C. with 2.5% (w/v) hyaluronidase and stained using a Histostain-SP Kit (AEC, Broad Spectrum) (Life Technologies, Grand Island, N.Y.) following the manufacturer's instructions. […]"}, "[3]": {"tested_on": "unstimulated chondrocytes", "test": "Unstimulated (no IL-1β) chondrocytes in 3D PEGDA hydrogels: biochemical analysis and histology", "settings": "for sGAG deposition / total collagen accumulation / type II collagen immunostaining: 21 days", "method": "as §1, §2, §5\nHistology and Immunohistochemistry. Constructs were fixed in 10% formalin or 4% paraformaldehyde followed by dehydration in increasing concentrations of ethanol, embedded in paraffin and sliced into 5 μm sections. After paraffin removal and subsequent rehydration, sections were stained for proteoglycans using Safranin-O and fast green or prepared for immunohistochemistry. For immunohistochemical staining of type II collagen, endogenous peroxidase was quenched using 3% (v/v) hydrogen peroxide in methanol. Sections were then incubated at 37° C. with 2.5% (w/v) hyaluronidase and stained using a Histostain-SP Kit (AEC, Broad Spectrum) (Life Technologies, Grand Island, N.Y.) following the manufacturer's instructions. Primary antibody for type II collagen (Fitzgerald Industries International, Acton, Mass.) was used at a dilution of 1:100 in 1% (w/v) BSA dissolved in PBS."}, "[4]": {"tested_on": "IL-1β-stimulated chondrocytes", "test": "IL-1β-stimulated chondrocytes in 3D PEGDA hydrogels: real-time PCR gene expression", "settings": "10 ng/ml IL-1β, 21 days", "method": "as §1, §2, §4, §3"}, "[5]": {"tested_on": "IL-1β stimulated chondrocytes", "test": "Monolayer chondrocytes with IL-1β: real-time PCR of NFκB target genes", "settings": "50 μM, 10 ng/ml IL-1β", "method": "as §1\nMonolayer cell culture. […]\nRNA Isolation and Real-Time PCR. […] Real-time PCR was carried out using a StepOnePlus™ Real-Time PCR System (Life Technologies, Grand Island, N.Y.). mRNA amounts for bovine primers were calculated using the ΔΔCt method. Relative mRNA quantities for goat primers were calculated using the Pfaffl method."}, "[6]": {"settings": "concentrations similar to increased ECM accumulation"}},
  "data": [
    {"molecule": "CCCC(=O)OC[C@H]1OC(O)[C@H](NC(C)=O)[C@@H](OC(=O)CCC)[C@@H]1OC(=O)CCC", "note": "(stereo partly drawn) [GlcNAc-a, 3,4,6-O-Bu3GlcNAc]", "values": [
      {"measurement": "type I collagen gene expression", "setting": "[1]", "result": "concentration-dependent decrease"},
      {"measurement": "MMP13 gene expression", "setting": "[1]; after lowest dose through 100 μM", "result": "decrease"},
      {"measurement": "IκBα and NFκB1 gene expression", "setting": "[1]; except the highest concentrations", "result": "Neither of these genes changed"},
      {"measurement": "IκBα and NFκB1 gene expression", "setting": "[1]; highest concentrations studied", "result": "an increase was observed"},
      {"measurement": "MMP13 gene expression", "setting": "[1]; lowest dose", "result": "initial increase"},
      {"measurement": "lowest concentration at which an increase in Safranin-O and type II collagen stains is observed", "setting": "[2]; 21 days", "result": 25, "unit": "µM"},
      {"measurement": "DNA content of cell-laden hydrogels (cell viability)", "setting": "[2]; 21 days exposure, up to 150 μM", "result": "did not elicit a statistically significant difference"},
      {"measurement": "type II collagen immunostaining, stain intensity versus no analog", "setting": "[2]; 21 days, 25 μM and 150 μM", "result": "slight increase in stain intensity"},
      {"measurement": "change in sGAG deposition compared to no exposure", "setting": "[2]; 21 days, 50 μM", "result": "almost doubling"},
      {"measurement": "increase in collagen accumulation compared to no exposure", "setting": "[2]; 21 days, 50 μM and 100 μM", "result": "almost doubling"},
      {"measurement": "total collagen accumulation normalized to DNA", "setting": "[2]; 21 days, 50 μM and 100 μM", "result": "significant increase"},
      {"measurement": "type II collagen immunostaining", "setting": "[2]; 21 days, 50 μM and 100 μM", "result": "increase in type II collagen immunostaining"},
      {"measurement": "sGAG accumulation normalized to DNA", "setting": "[2]; 21 days, at 150 μM", "result": "decreased"},
      {"measurement": "sGAG accumulation normalized to DNA", "setting": "[2]; 21 days, concentrations up to 100 μM, versus no analog", "result": "increase in sGAG accumulation"},
      {"measurement": "DNA content of cell-laden hydrogels (cell viability)", "setting": "[3]; 21 days exposure", "result": "did not elicit a statistically significant difference"},
      {"measurement": "sGAG deposition", "setting": "[3]; 150 μM", "result": "a decrease was observed"},
      {"measurement": "total collagen accumulation", "setting": "[3]; above 50 μM", "result": "concentration dependent decrease"},
      {"measurement": "type II collagen immunostaining", "setting": "[3]; above 50 μM", "result": "dose-dependent decrease"},
      {"measurement": "sGAG deposition", "setting": "[3]; below 150 μM", "result": "did not have an effect"},
      {"measurement": "total collagen accumulation", "setting": "[3]; through 50 μM", "result": "maintained collagen accumulation"},
      {"measurement": "type II collagen immunostaining", "setting": "[3]; through 50 μM", "result": "no differences"},
      {"measurement": "IκBα gene expression", "setting": "[4]", "result": "decreased"},
      {"measurement": "MMP13, NFκB1 and IκBα expression levels relative to unstimulated chondrocytes", "setting": "[4]", "result": "near to that of unstimulated"},
      {"measurement": "NFKB1 gene expression", "setting": "[4]", "result": "decreased"},
      {"measurement": "aggrecan, type II collagen and type I collagen expression relative to unstimulated chondrocytes", "setting": "[4]", "result": "approached expression levels found in unstimulated chondrocytes"},
      {"measurement": "MMP13 gene expression", "setting": "[4]; 150 μM", "result": "further decrease"},
      {"measurement": "aggrecan gene expression", "setting": "[4]; [6]", "result": "increased"},
      {"measurement": "type II collagen gene expression", "setting": "[4]; [6]", "result": "increased"},
      {"measurement": "MMP13 gene expression", "setting": "[4]; higher concentrations (through 100 μM)", "result": "decrease"},
      {"measurement": "type I collagen gene expression", "setting": "[4]; intermediate concentrations", "result": "increased"},
      {"measurement": "MMP13 gene expression", "setting": "[4]; low concentrations / lowest dose", "result": "initial increase"},
      {"measurement": "expression levels of IL-1β, IκBα and iNOS", "setting": "[5]; 4 hours exposure", "result": "able to alter expression levels of some of the genes"},
      {"measurement": "expression levels of NFκB target genes (IL-1β, MMP13, ADAMTS4, ADAMTS5, iNOS, PGES, NFκB1, IκBα)", "setting": "[5]; 24 hours exposure, MMP9 is the exception", "result": "decreased the expression levels of all genes evaluated"}
    ]}
  ]
}
